Measured values published in publication PMC8330742, “New benzothieno[2,3-c]pyridines as non-steroidal CYP17 inhibitors: design, synthesis, anticancer screening, apoptosis induction, and in silico ADME profile studies” (Journal of Enzyme Inhibition and Medicinal Chemistry, 2021).
Several values for one entry are separate records, joined by “and”; a condition that tells them apart may be missing. Equal values may be shown once.

How the values were obtained:
WI-38 human cell line = test: In vitro cytotoxicity on WI-38 human cell line (MTT); type: cell-based; conditions: WI-38 normal human cell line
Description: Cell Line cells were obtained from American Type Culture Collection and were cultured using DMEM (Invitrogen/Life Technologies) supplemented with 10% FBS (Hyclone), 10 µg/ml of insulin (Sigma), and 1% penicillin-streptomycin. All of the other chemicals and reagents were obtained from Sigma or Invitrogen. Plate cells were incubated (cells density 1.2–1.8 × 10,000 cells/well) in a volume of 100 µL complete growth medium and 100 ul of the tested compound per well in a 96-well plate for 24 h before the MTT assay. The cultures were removed from the incubator into a laminar flow hood or other sterile work area followed by the addition of reconstituted MTT in an amount equal to 10% of the culture medium volume, then incubated for an additional 2 h. After the incubation period, cultures were removed from the incubator, and the resulted formazan crystals were dissolved by adding an amount of MTT solubilisation solution [M-8910] equal to the original culture medium volume, then the absorbance at a wavelength of 570 nm was measured. Finally, the IC50 of the tested compound compared to the reference was calculated using GraphPad Prism software.

CYP17 enzyme = CYP17 enzyme ELISA in mice prostate cancer model; type: in vivo; conditions: 5 mg/kg i.p., 5 days a week, ELISA of tissue (Mice testis)
Description: (§1) A total of 16 mice from the TRAMP/FVB background ([…], male, average 45 days, average weight […], mice with prostate cancer) were taken and divided into 2 groups with 8 animals in each group. One group of mice was given a drug in 0.2 ml of DMSO and phosphate-buffered saline (1:10) ratio (5 mg/kg body weight, i.p., 5 days a week). The control group animals were treated with 0.2 ml of DMSO and phosphate-buffered saline (1:10) ratio. A total of eight mice, four animals from each group, were examined at 13 weeks of age, and the remaining animals from each group were examined at 20 weeks for prostate tumour development. Treatment was stopped 24 h before killing the animals.
BioSource 2704060 96 assay kit is a sandwich enzyme immunoassay for in vitro quantitative measurement of CYP17 enzyme activity in mouse tissue homogenates, cell lysates, cell culture supernatant, and other biological fluids. Tested tissues were rinsed in ice-cold PBS to remove excess blood and weighed before homogenisation. The tissues were minced and homogenised in fresh lysis buffer with a glass homogeniser. (catalog: IS007, different lysis buffer needs to be chosen based on subcellular location of the target protein) (w:v = 1:20–1:50, e.g. 1 ml lysis buffer is added in 20–50 mg tissue sample) The resulting suspension was sonicated with an ultrasonic cell disrupter till the solution was clarified. The homogenates were centrifuged for 5 min at 10,000 × g, and the supernatant was collected. An Aliquot was assayed and stored at ≤ −20 °C.
The assay sample and standard were incubated together with CYP-HRP conjugate in an appropriate number of microplates pre-coated with an antibody specific for the CYP17 enzyme for 1 h. After the incubation period, the wells were decanted and washed five times. The wells were then incubated with a substrate for the HRP enzyme. […] Colour intensity was measured spectrophotometrically at 450 nm in a microplate reader. […]
Assay procedures: Wells for a standard, blank, and sample were prepared. […] The absorbance was measured immediately at 450 nm.

plasma testosterone = test: Testosterone ELISA assay in mice prostate cancer model; type: in vivo
Description: as §1
The BioVendor mouse/rat testosterone ELISA assay is a competitive immunoassay for the measurement of testosterone in rat and mouse serum or plasma based on the principle of competitive binding. An unknown amount of testosterone present in the sample (plasma or serum) and a known amount of testosterone conjugated to horseradish peroxidase compete for the binding sites of testosterone antiserum coated to the wells of a microplate. The sample was incubated with the microplate for 1 h, then washed four times. The HRP substrate solution was added followed by the stop solution. Colour change has been observed, and the optical density was measured at 450 nm.
Assay procedures: Sufficient number of microplate wells were prepared to accommodate standard and samples in duplicates. The standard, sample, and control (10 µL each) were dispensed with new disposable tips into appropriate wells. Incubation buffer 100 µL was dispensed into each well. Afterward, enzyme conjugate (50 µL) was added to each well and incubated for 60 min at room temperature on a microplate mixer. The content of the wells was discarded, and the wells were rinsed 4 times with diluted wash solution (300 µL per well). The substrate solution (200 µL) was added to each well and incubated in the dark without shaking for 30 min. The reaction was stopped by adding a stop solution (2 N hydrochloric acid solution, 50 µL) to each well. The absorbance of each well was determined at 450 nm.

PC-3 cells = test: Cell cycle analysis (propidium iodide, flow cytometer); type: cell-based, human; conditions: PC-3, 2.34 µM, 24 h
Description: The prostate PC-3 cells were placed in a six-well plate at 1 × 10^5 conc. of cells/well, then incubated for 24 h. The cells were treated with 2.34 µM of compound 5c or (0.1% DMSO) for 24 h. Thereafter, cells were collected and fixed for 12 h using ice-cold 70% ethanol at 4 °C. Then, ethanol was removed, and the cells were washed with cold Phosphate Buffer Saline (PBS) and incubated for 30 min at 37 °C in 0.5 ml of PBS. The cells were stained for 30 min with propidium iodide in the dark. The flow cytometer was used to detect DNA contents.

N#CC1C(=O)NC(c2ccccc2[N+](=O)[O-])c2sc3c(F)cccc3c21 (centres unmarked) [Compound 5c, 4-Cyano-8-fluoro-1-(2-nitrophenyl)-1,2-dihydro[1]benzothieno[2,3-c] pyridin-3(4H)-one]
IC50 (WI-38 human cell line): 34.1 µM | CYP17 enzyme aver. conc. (CYP17 enzyme): 15.8 nM and 15.80 nM and 15.80 ± 0.20 nM | potency relative to abiraterone (testosterone inhibition) (plasma testosterone): 1.1 folds | Plasma testosterone aver. conc. (plasma testosterone; 5 mg/kg i.p., 5 days a week, ELISA, 5 mg/kg): 12.26 nM and 12.26 ± 0.17 nM | DNA content (%) G0-G1 (PC-3 cells): 49.61% | DNA content (%) G2/M (PC-3 cells): 6.21% | DNA content (%) Pre-G1 (PC-3 cells): 42.55% | DNA content (%) S (PC-3 cells): 44.18%
